{"source": "paper PMC10252845", "about": "“Identification and Characterization of Novel ACE Inhibitory and Antioxidant Peptides from Sardina pilchardus Hydrolysate” (Foods, 2023)", "key": {"[1]": {"test_system": "ACE", "settings": "cited from earlier work"}, "[2]": {"experiment": "Fe2+-chelating ability (ferrozine)", "settings": "positive control 10 μg/mL"}, "[3]": {"experiment": "Digestive stability in artificial intestinal fluid", "type": "in vitro ADME", "settings": "37 °C, 2.0 h", "description": "(§1) Raw sardines (S. pilchardus) were purchased from Xiangtai Fisheries Co., Ltd. (Haikou, Hainan, China). ACE (from rabbit lung) and N-Hippuryl-His-Leu (HHL) were purchased from Sigma Chemicals Co., Ltd. (St. Louis, MO, USA). Dispase (enzyme activity 200 U/mg) was purchased from Adamas Chemicals Co., Ltd. (Shanghai, China). Alkaline protease (enzyme activity 200 U/mg) and borate buffer solution (BBS, pH8.4, containing 0.1 M H3BO3 and 0.025 M Na2B4O7) were purchased from Shanghai Yuanye Biotechnology Co., Ltd. (Shanghai, China). Trifluoroacetic acid (TFA), formic acid (FA), and acetonitrile (ACN) were obtained from Thermo Fisher Scientific Co., Ltd. (Waltham, MA, USA). The materials used for HPLC analysis were of HPLC grade, and all other reagents were of analytical grade. Artificial gastric fluid (10 g/L pepsin) and artificial intestinal fluid (10 g/L pancreatic enzyme) were purchased from Guangzhou Testing Technology Co., Ltd. (Guangzhou, China).\nPeptides were quantified using HPLC and InertSustain C18 (5 μm, 4.6 × 250 mm). For FIGR, HPLC analysis conditions were as follows: the UV wavelength was constant at 228 nm, the mobile phase was 0.1% TFA/15% ACN in water, the flow rate was 1 mL/min, and the injection volume was 10 μL. For rest peptides, the mobile phase was 0.1% TFA/25% ACN in water, and the other conditions were the same as FIGR.\nThe peptide solutions of 0.10, 0.25, 0.50, 1.00, and 1.50 mg/mL were prepared precisely, and the peak areas of the peptides at different concentration conditions were determined. The peak area was plotted as the vertical coordinate and the concentration as the horizontal coordinate to find out the regression equation.\nIn total, 50 μL of the 10 mg/mL peptide solution was mixed with 450 μL of artificial gastric fluid or artificial intestinal fluid in a water bath at 37 °C for 2.0 h. Then, digestion was stopped in a water bath at 90 °C for 5 min, and the method for determining the peptide content was mentioned in Section 2.10.1. Peptide preservation rate was calculated as (3) Peptide Preservation Rate=Peptide content after treatment/Peptide content before treatment × 100,"}, "[4]": {"experiment": "DPPH radical scavenging activity", "settings": "positive control 10 μg/mL", "procedure": "The 2,2-diphenyl-1-picrylhydrazyl (DPPH) is a stable free radical with a distinct purple color and absorbs light at 517 nm. Antioxidants added to the DPPH solution lead to a reduction in the DPPH radical to a non-radical form, resulting in a decrease in the solution’s absorbance. […] This principle of DPPH radical scavenging is commonly utilized for evaluating the antioxidant capacity of various substances, such as peptides.\nSample (1 mg/mL) group was aliquots of samples being mixed 1:1 (v/v) with 0.1 mmol/L DPPH (in ethanol absolute); control group was aliquots of samples being mixed 1:1 (v/v) with ethanol absolute; and blank group was aliquots of ethanol absolute being mixed 1:1 (v/v) with 0.1 mmol/L DPPH (in ethanol absolute). The mixture was shaken and kept for 40 min at room temperature and protected from light. The radical scavenging activity of DPPH radical was determined by measuring the absorbance at 517 nm. […] In this study, the sample concentration was 1 mg/mL, which was determined to be within the linear range of the concentration of the sample and its DPPH scavenging ability. The ability of the sample to scavenge DPPH radical was calculated according to the following equation:(4) DPPH Radical Scavenging Activity=(1 − Ai−Aj/A0) × 100, where Ai is absorbance of sample group, Aj is absorbance of control group, and A0 is absorbance of blank group."}, "[5]": {"experiment": "ABTS+ scavenging activity", "settings": "positive control 10 μg/mL", "procedure": "The 2,2′-Azinobis(3-ethylbenzothiazoline-6-sulfonic acid Ammonium Salt (ABTS) is commonly utilized as a stable free radical source in experiments. It is oxidized by potassium persulfate to produce an ABTS+ radical cation, which has a blue-green hue and absorbs light at 734 nm. When antioxidants are added, the free radical cations are reduced to the colorless ABTS form.\nThe ABTS+ was generated by mixing 7 mM ABTS and 4.09 mM potassium persulfate in the same volume, and the mixture was kept in the dark at room temperature for 12 h before use. The sample (1 mg/mL) group added sample 0.5 mL with 1 mL of ABTS+ solution. Control group was the same as the sample group, except that the sample was replaced with deionized water. Blank group was added deionized water 0.5 mL with 1 mL of ABTS+ solution. After incubation at room temperature for 6 min, the absorbance was tested at 734 nm. The positive control was 10 μg/mL glutathione (GSH). The sample’s concentration of 1 mg/mL falls within the linear range of the sample’s ABTS scavenging ability. (5) ABTS+Scavenging Activity=(1 − A1−A2/A3) × 100, where A1 is absorbance of sample group, A2 is absorbance of control group, and A3 is absorbance of blank group."}, "[6]": {"target": "T1, ACE (from rabbit lung) (Oryctolagus cuniculus, UniProt P12822)", "T1 construct": "ACE (from rabbit lung); purchased Sigma Chemicals Co., Ltd. (St. Louis, MO, USA); host or cells: rabbit lung (tissue of origin)", "T1 sequence (P12822 34-1310)": "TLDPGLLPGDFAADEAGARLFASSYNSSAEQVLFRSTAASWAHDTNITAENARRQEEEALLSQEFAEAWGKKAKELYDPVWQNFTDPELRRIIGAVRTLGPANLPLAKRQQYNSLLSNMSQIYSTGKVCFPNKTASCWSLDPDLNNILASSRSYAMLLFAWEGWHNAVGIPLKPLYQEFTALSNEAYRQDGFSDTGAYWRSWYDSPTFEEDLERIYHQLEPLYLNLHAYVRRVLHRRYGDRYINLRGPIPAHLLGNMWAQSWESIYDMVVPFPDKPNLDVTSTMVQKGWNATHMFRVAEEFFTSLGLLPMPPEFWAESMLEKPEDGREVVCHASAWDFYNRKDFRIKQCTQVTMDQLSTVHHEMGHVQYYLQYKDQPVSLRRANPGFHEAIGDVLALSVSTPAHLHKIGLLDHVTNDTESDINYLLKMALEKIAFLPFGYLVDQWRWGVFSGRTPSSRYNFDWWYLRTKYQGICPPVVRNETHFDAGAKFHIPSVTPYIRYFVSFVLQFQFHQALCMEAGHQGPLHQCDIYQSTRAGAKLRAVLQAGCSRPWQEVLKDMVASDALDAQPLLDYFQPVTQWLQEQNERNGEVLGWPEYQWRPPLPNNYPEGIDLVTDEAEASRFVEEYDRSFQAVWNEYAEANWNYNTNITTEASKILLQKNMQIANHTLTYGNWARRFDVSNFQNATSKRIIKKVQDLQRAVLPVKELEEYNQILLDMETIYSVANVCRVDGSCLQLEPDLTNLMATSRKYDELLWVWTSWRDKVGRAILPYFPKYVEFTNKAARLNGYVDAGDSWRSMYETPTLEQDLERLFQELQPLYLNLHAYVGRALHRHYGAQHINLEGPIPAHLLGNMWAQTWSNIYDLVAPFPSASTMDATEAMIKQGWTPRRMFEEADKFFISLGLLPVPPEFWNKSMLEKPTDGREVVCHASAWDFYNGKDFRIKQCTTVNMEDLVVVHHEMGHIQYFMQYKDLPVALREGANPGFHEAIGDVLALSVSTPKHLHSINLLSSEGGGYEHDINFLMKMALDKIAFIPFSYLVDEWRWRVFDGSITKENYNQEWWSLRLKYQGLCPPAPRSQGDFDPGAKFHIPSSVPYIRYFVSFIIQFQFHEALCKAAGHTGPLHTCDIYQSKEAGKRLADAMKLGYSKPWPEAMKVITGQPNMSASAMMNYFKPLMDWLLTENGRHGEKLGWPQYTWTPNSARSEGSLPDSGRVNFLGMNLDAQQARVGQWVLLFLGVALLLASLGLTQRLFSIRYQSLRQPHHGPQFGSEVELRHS", "experiment": "In vitro ACE inhibitory activity assay (HHL substrate, hippuric acid by HPLC)", "type": "biochemical", "settings": "synthetic peptides; read-out: IC50 for ACE inhibition (converted)", "description": "as §1\nThe ACE inhibitory activity assay was determined according to a previous report with some modifications. HHL was dissolved in BBS to make a solution with a concentration of 5 mmol/L. The ACE was dissolved in BBS at a concentration of 0.06 U/mL. The reaction system was as follows: 20 μL of 0.06 U/mL ACE solution and 40 μL of sample solution or control (BBS) was added. After 5 min in a water bath at 37 °C, 50 μL of 5 mM HHL was added and incubated at 37 °C for 1 h. At the end of the incubation, 50 μL of […] was added to terminate the reaction. 500 μL water was added to the reaction system. Hippuric acid (HA) was quantified after being released from the system using HPLC and InertSustain C18 (5 μm, 4.6 × 250 mm). HPLC analysis conditions were as follows: the UV wavelength was constant at 228 nm, the mobile phase was 0.1% TFA/25% ACN in water, the flow rate was 1 mL/min, and the injection volume was 10 μL. The ACE inhibition activity was calculated by the following equation:(1) ACE Inhibition Activity=∆A−∆B/∆A × 100, where ΔA represented the peak area of HA in the control group; ΔB represented the peak area of the sample group.\nAll experiments were performed in triplicate (except for the molecular docking results), and data were reported as mean ± SD (n ≥ 3). An ANOVA test using SPSS 26.0 (SPSS Corporation, Chicago, IL, USA) was used to analyze the experimental data. The IC50 value was defined as the half concentration of the peptide required to inhibit the ACE activity, and the IC50 of the ACE inhibitory peptides was determined by calculating the ACE inhibition rate at various sample concentrations using the SPSS 26.0 probit regression model."}, "[7]": {"experiment": "Hydroxyl radical scavenging activity (salicylic acid)", "settings": "positive control 10 μg/mL", "procedure": "The hydroxyl radical (·OH) is a free radical that comprises an oxygen atom and a hydrogen atom (·OH). The principle behind measuring hydroxyl radical scavenging activity involves the reaction between the hydroxyl radical and salicylic acid, which produces 2, 3-dihydroxybenzoic acid that can be quantified by measuring the absorbance at 510 nm.\nThe 1 mL of sample (1 mg/mL) was mixed with 1 mL of 4.5 mmol/L of ferrous sulfate and 1 mL of 30% H2O2 (v/v). The reaction mixture was standing for 10 min after vortexing. Then, 1 mL of 4.5 mmol/L salicylic acid was added and subsequently vortexed. After a water bath at 37 °C for 30 min, the absorbance of the mixture was measured at 510 nm (As). For the control, deionized water was added instead of salicylic acid (Ac). Vitamin C (Vc) was used as a positive control at 10 μg/mL. Hydroxyl radical scavenging activity was calculated as follows:(6) Hydroxyl Radical Scavenging Activity=(1 − Ac−As/Ac) × 100,"}}, "note": "Where a SMILES comes first, the peptide text is derived from it.", "data": [{"compound": "RWDISQPY", "values": [{"measurement": "ACE inhibition pattern", "setting": "[1]", "result": "Competitive"}]}, {"compound": "AEYLCEAC", "values": [{"measurement": "IC50", "setting": "[1]", "result": 4290, "unit": "µM"}]}, {"compound": "O=C([O-])CN(CCN(CC(=O)O)CC(=O)O)CC(=O)[O-].[Na+].[Na+]", "note": "[EDTA-2Na]", "values": [{"measurement": "Fe2+ chelating capacity", "setting": "[2]", "result": "28.81% ± 1.13"}]}, {"compound": "CC(C)C[C@H](NC(=O)[C@H](CCCNC(=N)N)NC(=O)[C@H](CCC(N)=O)NC(=O)[C@@H](N)Cc1ccccc1)C(=O)O", "note": "[FQRL] (H-FQRL-OH; N-terminus and C-terminus assumed)", "values": [{"measurement": "Retention rate after intestinal digestion", "setting": "[3]", "result": "25.62% ± 2.01"}]}, {"compound": "N[C@@H](CCC(=O)N[C@@H](CS)C(=O)NCC(=O)O)C(=O)O", "note": "[GSH, Glutathione]", "values": [{"measurement": "DPPH scavenging capacity", "setting": "[4]", "result": "33.25% ± 1.44"}, {"measurement": "ABTS scavenging capacity", "setting": "[5]", "result": "9.01% ± 0.69"}]}, {"compound": "CC(C)C[C@H](NC(=O)[C@H](C)NC(=O)[C@H](CCCNC(=N)N)NC(=O)[C@@H](N)Cc1ccccc1)C(=O)O", "note": "[FRAL] (H-FRAL-OH; N-terminus and C-terminus assumed)", "values": [{"measurement": "IC50", "setting": "[6]", "result": 1310, "unit": "µM"}, {"measurement": "Retention rate after intestinal digestion", "setting": "[3]", "result": "10.83% ± 0.44"}]}, {"compound": "CC(C)C[C@H](NC(=O)[C@@H](N)CCCCN)C(=O)N[C@@H](Cc1ccccc1)C(=O)O", "note": "[KLF] (H-Lys-Leu-Phe-OH; N-terminus and C-terminus assumed)", "values": [{"measurement": "IC50", "setting": "[6]", "result": 2190, "unit": "µM"}, {"measurement": "Retention rate after intestinal digestion", "setting": "[3]", "result": "88.92% ± 2.60"}]}, {"compound": "O=C1O[C@H]([C@@H](O)CO)C(O)=C1O", "note": "[Vc, Vitamin C]", "values": [{"measurement": "Hydroxyl radical scavenging ability", "setting": "[7]", "result": "9.39% ± 0.54"}]}, {"compound": "CC[C@H](C)[C@H](NC(=O)[C@@H](N)Cc1ccccc1)C(=O)N[C@@H](CC(C)C)C(=O)N[C@@H](CCCNC(=N)N)C(=O)O", "note": "[FILR] (H-FILR-OH; N-terminus and C-terminus assumed)", "values": [{"measurement": "Retention rate after intestinal digestion", "setting": "[3]", "result": "86.23% ± 1.60"}]}, {"compound": "CC[C@H](C)[C@H](NC(=O)[C@@H](N)Cc1ccccc1)C(=O)NCC(=O)N[C@@H](CCCNC(=N)N)C(=O)O", "note": "[FIGR] (H-FIGR-OH; N-terminus and C-terminus assumed)", "values": [{"measurement": "IC50", "setting": "[6]", "result": 1220, "unit": "µM"}, {"measurement": "Retention rate after intestinal digestion", "setting": "[3]", "result": "50.78% ± 0.77"}]}, {"compound": "CC(C)C[C@H](NC(=O)[C@H](Cc1ccccc1)NC(=O)[C@@H](N)CCCCN)C(=O)O", "note": "[KFL] (H-Lys-Phe-Leu-OH; N-terminus and C-terminus assumed)", "values": [{"measurement": "IC50", "setting": "[6]", "result": 1500, "unit": "µM"}, {"measurement": "Retention rate after intestinal digestion", "setting": "[3]", "result": "73.36% ± 0.86"}]}]}
